The source of these data is ChEMBL document CHEMBL1131680, “Structure-based design of diaminopyranosides as a novel inhibitor core unit of HIV proteases” (Bioorg Med Chem Lett, 1999).

In this assay the target is Human immunodeficiency virus type 1 protease (Human immunodeficiency virus 1, UniProt Q72874). Nature of the assay: Inhibitory concentration required to inhibit hydrolytic activity of recombinant HIV-1 PR (human immunodeficiency virus protease).

With `[N-]=[N+]=NC1C(N)C(OCc2ccccc2)OC(CO)C1OCc1ccccc1` (stereo not drawn), the half-maximal inhibitory concentration (IC50) (in general, the concentration needed to halve the response being measured) is more than 1 µM.

Regarding `NC1C(OCc2ccccc2)OC(CO)C(OCc2ccccc2)C1N` (stereo not drawn), the IC50 amounted to 205 µM.

Turning to `NC1C(OCc2ccccc2)OC(COC(=O)Nc2ccccc2)C(OCc2ccccc2)C1N` (stereo not drawn), the IC50 was found to be 28 µM.
